Experimental findings from paper PMC7269481, “ZN148 Is a Modular Synthetic Metallo-β-Lactamase Inhibitor That Reverses Carbapenem Resistance in Gram-Negative Pathogens In Vivo” (Antimicrobial Agents and Chemotherapy, 2020) are described below.

A word on the MIC: it is the least concentration at which growth counts as inhibited.

Molecules are shown by their SMILES.

One assay deals with T1, VIM-2 (Escherichia coli, UniProt Q5U7L7).
T1 construct: made in house
Briefly: Zinc content determination by ICP-MS, VIM-2. The class given is biochemical. Particulars: ICP-MS after preincubation. How it is done: Inductively coupled plasma mass spectrometry (ICP-MS) was used to investigate the chelating property of ZN148 by measuring the zinc concentration (Zn^66) after incubation of VIM-2 with or without ZN148 in zinc depleted 50 mM HEPES buffer (pH 7.5; Chelex HEPES buffer). The Chelex buffer was prepared by stirring 2 g of Chelex resin (Bio-Rad, Hercules, CA) in 100 ml of 50 mM HEPES buffer (pH 7.5). The resin was subsequently removed by sterile filtration (Merck Millipore, 0.22 μm). VIM-2 (10 g/liter) was diluted to 12.5 mg/liter and mixed with ZN148 at different final concentrations (0, 12.5, 125, and 1250 μM) in Chelex HEPES buffer. All solutions were allowed to incubate for 30 min on ice and subsequently concentrated by centrifugation (at 4,000 × g, 4°C for 25 min) to a volume of 250 μl using centrifugal molecular cutoff filters (Merck Millipore, 10,000 Da). […] Per inhibitor concentration, at least three biological replicates were performed and injected and measured in triplicates. For the MS analysis the kinetic energy discrimination mode with a helium flow rate of 5.7 ml/min, 20 sweeps per reading, and a dwell time of 100 ms/atomic mass unit (AMU) for Zn^66 and 50 ms/AMU for Rh^103 were applied. […] The zinc concentration within the samples was determined based on an external calibration curve (0, 290, 580, 1,160, and 2,320 μg/liter). […]

The test system of assay [1] is E. coli co-producing MBLs and class A/D serine carbapenemases. Briefly: Carbapenem MIC, E. coli co-producing MBLs and class A/D serine carbapenemases. The class given is cell-based. The settings on record: carbapenem alone or with 50µM ZN148. How it is done:
MICs of carbapenems alone and in combination with inhibitors were determined by broth microdilution according to the Clinical and Laboratory Standards Institute (CLSI) guidelines ([48]) using either premade plates (TREK Diagnostic Systems/Thermo Fisher Scientific, East Grinstead, United Kingdom) with meropenem or in-house-prepared plates with meropenem, imipenem, and doripenem. ZN148 and other inhibitors were tested at a fixed concentration of 50 μM. Cation-adjusted Mueller-Hinton medium (TREK Diagnostic Systems/Thermo Fisher Scientific; Becton Dickinson, Franklin Lakes, NJ) were used as growth medium. The plates were incubated for 20 h at 37°C. ZN148, ZN222, ZN223, ZN228, and TPA were initially tested in combination with meropenem using two indicator strains: NDM-1-producing K. pneumoniae ([49], [50]) and VIM-2-producing P. aeruginosa ([51]). The activity of ZN148 were subsequently tested against two extended strain collections: (i) in combination with meropenem against MBL-producing Enterobacterales (n = 62), MBL-producing P. aeruginosa (n = 9) and MBL- and class D carbapenemase-coproducing Enterobacterales (n = 5) from the strain collection at the Norwegian National Advisory Unit on Detection of Antimicrobial Resistance and (ii) in combination with meropenem, imipenem, and doripenem against globally collected MBL-producing E. coli (n = 87), K. pneumoniae (n = 85), P. aeruginosa (n = 52), and A. baumannii (n = 6), MBL- and class A/D carbapenemase-coproducing E. coli (n = 11), K. pneumoniae (n = 15) and A. baumannii (n = 7) at IHMA Europe, Sàrl, Switzerland. E. coli ATCC 25922 and P. aeruginosa ATCC 27853 were used as quality control strains. The MBL inhibitors were also tested for intrinsic antibacterial activity against the strains.

In assay [2] the test system is M. morganii co-producing MBLs and class A/D serine carbapenemases. Briefly: Meropenem MIC, M. morganii co-producing NDM-1 and OXA-48. Particulars: Morganella morganii; NDM-1 + OXA-48 strain; meropenem alone or with 50µM ZN148. Format: cell-based. How it is done:
MICs of carbapenems alone and in combination with inhibitors were determined by broth microdilution according to the Clinical and Laboratory Standards Institute (CLSI) guidelines ([48]) using either premade plates (TREK Diagnostic Systems/Thermo Fisher Scientific, East Grinstead, United Kingdom) with meropenem or in-house-prepared plates with meropenem, imipenem, and doripenem. ZN148 and other inhibitors were tested at a fixed concentration of 50 μM. Cation-adjusted Mueller-Hinton medium (TREK Diagnostic Systems/Thermo Fisher Scientific; Becton Dickinson, Franklin Lakes, NJ) were used as growth medium. The plates were incubated for 20 h at 37°C. ZN148, ZN222, ZN223, ZN228, and TPA were initially tested in combination with meropenem using two indicator strains: NDM-1-producing K. pneumoniae ([49], [50]) and VIM-2-producing P. aeruginosa ([51]). […]

As to `CN(C[C@H](O)[C@@H](O)[C@H](O)[C@H](O)CO)C(=O)c1ccc(CN(Cc2ccccn2)Cc2ccccn2)nc1` [ZN148], at VIM-2, the “zinc removed from enzyme” value is listed as ~1.8 molar equivalents.

As for `C[C@@H](O)[C@H]1C(=O)N2C(C(=O)O)=C(S[C@@H]3CN[C@H](C(=O)N(C)C)C3)[C@H](C)[C@H]12` [meropenem], the minimum inhibitory concentration (MIC) in assay [1] (NDM-1 + GES-2 strain) is > 64 µg/mL; in assay [1] (NDM-5 + OXA-48 strain), > 64 µg/mL; in assay [1] (NDM-5 + OXA-232 strains, one value per strain), > 64 µg/mL; in assay [2], 8 µg/mL.
